From patent USRE50528E1, “Compounds and compositions for modulating EGFR mutant kinase activities” (Yuhan Corporation, priority 2014, dated 2025)
pIC50: −log10 of the molar value.

How the values were obtained:
EGFR mutant T790M = biological target: T1, EGFR mutant T790M (Homo sapiens, UniProt P00533, T790M); assay: Kinase inhibition assay, EGFR mutant T790M; conditions: biochemical potency;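 also: truncated human EGFR mutant enzyme preincubated two hours with compound, then ATP plus ULight-PolyGT peptide for one hour, Europium-labeled antibody LANCE detection, IC50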
T1 construct: truncated human JAK3, EGFR mutants such as del E746-A750; purchased Carna Biosciences

[1] = biological target: T2, EGFR mutant Del19 (E746-A750) (Homo sapiens, UniProt P00533, DEL746-750); assay: Kinase inhibition assay, EGFR del E746-A750; assay type: biochemical; conditions: read-out: EGFR mutants Del19 (E746-A750);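 also: truncated human EGFR mutant kinase, two-hour preincubation with compound, then one-hour reaction with ATP and ULight-PolyGT peptide, LANCE Europium-antibody phosphorylation readout, IC50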
T2 construct: truncated human JAK3, EGFR mutants such as del E746-A750; purchased Carna Biosciences

EGFR mutant L858R = biological target: T3, EGFR mutant L858R (Homo sapiens, UniProt P00533, L858R); assay: Kinase inhibition assay, EGFR L858R; assay type: biochemical; conditions: read-out: EGFR mutants L858R;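 also: truncated human EGFR L858R kinase with compound preincubation, ULight-PolyGT peptide phosphorylation read by Europium-antibody Lance detection, IC50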
T3 construct: truncated human JAK3, EGFR mutants such as del E746-A750; purchased Carna Biosciences

EGFR mutant L858R/T790M = biological target: T4, EGFR mutant L858R/T790M (Homo sapiens, UniProt P00533, L858R/T790M); assay: Kinase inhibition assay, EGFR L858R/T790M; assay type: biochemical; conditions: read-out: EGFR mutants L858R/T790M;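 also: truncated human enzyme preincubated two hours with compound, then one hour with one millimolar ATP and ULight-PolyGT peptide, Europium-labeled antibody detection, IC50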
T4 construct: truncated human JAK3, EGFR mutants such as del E746-A750; purchased Carna Biosciences

EGFR mutant Del19/T790M = biological target: T5, EGFR mutant Del19/T790M (Homo sapiens, UniProt P00533, DEL746-750/T790M); assay: Kinase inhibition assay, EGFR del E746-A750/T790M; assay type: biochemical; conditions: read-out: EGFR mutants Del19/T790M
T5 construct: truncated human JAK3, EGFR mutants such as del E746-A750; purchased Carna Biosciences

JAK3 = biological target: T6, JAK3 (Homo sapiens, UniProt P52333); assay: Kinase inhibition assay, JAK3; conditions: biochemical potency;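 also: IC50 against purified truncated human JAK3 preincubated with compound, then reacted with ATP and ULight-Jak1 peptide, phosphorylation read by Europium-labeled antibody LANCE detection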
T6 construct: EGFR and JAK3 (JH1domain-catalytic) kinases, and mutant forms thereof; purchased Carna Biosciences

SYK = biological target: T7, SYK (Homo sapiens, UniProt P43405); assay: Kinase inhibition assay, SYK; assay type: biochemical; conditions: for pIC50: biochemical potency;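 as to all read-outs here: purified full-length human SYK pre-incubated 30 min with compound, then ULight-TK peptide phosphorylation for 1 h, detected with Europium-labeled antibody in Lance buffer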
T7 construct: Purified human, full-length SYK, KDR; purchased Carna Biosciences

KDR = biological target: T8, KDR (Homo sapiens, UniProt P35968); assay: Kinase inhibition assay, KDR; assay type: biochemical; conditions: for pIC50: biochemical potency;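 as to all read-outs here: purified full-length human KDR, 30 min preincubation with compound, then 1 h reaction with ATP and Ulight-Jak1 peptide substrate, phosphorylation read by Lance Europium antibody detection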
T8 construct: Purified human, full-length SYK, KDR; purchased Carna Biosciences

H2073 (EGFR wildtype) = assay: Cell viability assay, H2073; assay type: cell-based; conditions: for pIC50: NCI-H2073, cellular potency, 72-hour incubation, ATPLite;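 as to all read-outs here: NSCLC cell line whose survival relies on wildtype EGFR, treated with serially diluted compound, cytotoxic effect judged from remaining cell viability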
[2] = tested on: PC9 (EGFR del E746-A750 mutant); assay: Cell viability assay, PC9; assay type: cell-based; conditions: for Selectivity over wildtype, Wildtype vs mutant H2073/PC9 (fold): cellular potency ratio; for pIC50: cellular potency, 72-hour incubation, ATPLite, read-out: EGFR Mutants PC9;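 as to all read-outs here: NSCLC PC9 cells, whose viability relies on EGFR del E746-A750, exposed to serially diluted compound for 72 h at 37 °C, ATPLite read-out, IC50, H2073 as EGFR wildtype line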
[3] = tested on: H1975 (EGFR L858R/T790M mutant); assay: Cell viability assay, H1975; assay type: cell-based; conditions: for pIC50: Homo sapiens, NCI-H1975, cellular potency, 72-hour incubation, ATPLite, read-out: EGFR Mutants H1975; for Selectivity over wildtype, Wildtype vs mutant H2073/H1975 (fold): cellular potency ratio;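 as to all read-outs here: NSCLC cells whose survival relies on EGFR L858R/T790M, exposed 72 h to serially diluted compound, ATP-based viability readout, with the H2073 line (wildtype EGFR dependent) as wildtype comparator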
p-EGFR wildtype = biological target: T9, p-EGFR wildtype (Homo sapiens, UniProt P00533); assay: Western analysis, H1299 p-EGFR wildtype; assay type: cell-based; conditions: for pIC50: molecular potency, 4 hours, 3 nM EGF ligand
T9 construct: endogenous in cells; host or cells: H1299

p-EGFR del E746-A750 = biological target: T10, p-EGFR del E746-A750 (Homo sapiens, UniProt P00533, DEL746-750); assay: Western analysis, PC9 p-EGFR del E746-A750; assay type: cell-based; conditions: for Selectivity over wildtype: p-wildtype over p-EGFR del19: H1299 vs PC9; for pIC50: molecular potency, 4 hours, read-out: PC9 p-EGFR del 19 (E746-A750)
T10 construct: phosphorylation of mutant EGFR in NSCLC lines PC9; endogenous in cells; host or cells: PC9

p-EGFR L858R/T790M = biological target: T11, p-EGFR L858R/T790M (Homo sapiens, UniProt P00533, L858R/T790M); assay: Western analysis, H1975 p-EGFR L858R/T790M; assay type: cell-based; conditions: for Selectivity over wildtype: p-wildtype over p-EGFR L858R, T790M: H1299 vs H1975; for pIC50: molecular potency, 4 hours
T11 construct: phosphorylation of mutant EGFR in NSCLC lines H1975; endogenous in cells; host or cells: H1975

[4] = approximate ATP Km concentration

T6 sequence (P52333 822-1111 limits assumed): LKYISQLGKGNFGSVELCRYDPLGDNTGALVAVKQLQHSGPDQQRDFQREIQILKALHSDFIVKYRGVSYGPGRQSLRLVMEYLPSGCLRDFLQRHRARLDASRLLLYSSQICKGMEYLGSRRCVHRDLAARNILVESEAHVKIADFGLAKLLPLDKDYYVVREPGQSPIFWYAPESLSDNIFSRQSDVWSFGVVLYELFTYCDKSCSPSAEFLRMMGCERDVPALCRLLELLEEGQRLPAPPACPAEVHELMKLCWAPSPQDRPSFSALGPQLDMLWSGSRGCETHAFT
T5 sequence (P00533 with tags, fused parts or gaps DEL746-750/T790M limits assumed): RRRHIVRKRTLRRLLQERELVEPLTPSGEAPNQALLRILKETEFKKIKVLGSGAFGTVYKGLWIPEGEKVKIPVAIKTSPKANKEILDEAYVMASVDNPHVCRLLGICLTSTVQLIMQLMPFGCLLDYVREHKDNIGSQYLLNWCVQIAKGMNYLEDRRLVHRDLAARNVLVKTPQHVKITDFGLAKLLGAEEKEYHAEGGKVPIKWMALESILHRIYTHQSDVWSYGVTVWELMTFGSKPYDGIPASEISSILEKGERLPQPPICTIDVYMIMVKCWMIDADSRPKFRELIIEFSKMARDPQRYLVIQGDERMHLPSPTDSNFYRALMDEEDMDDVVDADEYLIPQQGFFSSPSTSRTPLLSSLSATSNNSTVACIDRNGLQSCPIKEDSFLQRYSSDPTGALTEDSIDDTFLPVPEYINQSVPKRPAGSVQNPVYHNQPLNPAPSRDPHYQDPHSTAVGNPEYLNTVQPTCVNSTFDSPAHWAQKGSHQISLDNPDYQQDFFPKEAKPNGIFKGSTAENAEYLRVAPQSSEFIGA
T4 sequence (P00533 669-1210 T790M/L858R limits assumed): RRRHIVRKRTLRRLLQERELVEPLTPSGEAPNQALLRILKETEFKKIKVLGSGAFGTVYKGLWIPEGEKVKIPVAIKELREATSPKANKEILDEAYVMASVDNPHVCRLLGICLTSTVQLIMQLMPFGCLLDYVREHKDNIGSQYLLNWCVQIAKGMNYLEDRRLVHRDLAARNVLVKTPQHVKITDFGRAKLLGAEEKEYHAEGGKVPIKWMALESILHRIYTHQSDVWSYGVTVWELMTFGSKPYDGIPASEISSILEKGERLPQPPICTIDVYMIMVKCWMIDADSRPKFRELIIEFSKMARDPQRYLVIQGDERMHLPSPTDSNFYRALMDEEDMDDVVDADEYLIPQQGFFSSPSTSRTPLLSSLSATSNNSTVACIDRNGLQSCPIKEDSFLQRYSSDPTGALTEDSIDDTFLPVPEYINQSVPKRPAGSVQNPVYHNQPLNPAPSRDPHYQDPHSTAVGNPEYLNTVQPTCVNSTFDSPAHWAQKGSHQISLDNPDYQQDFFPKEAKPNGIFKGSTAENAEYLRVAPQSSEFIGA
T10 sequence (P00533 with tags, fused parts or gaps DEL746-750): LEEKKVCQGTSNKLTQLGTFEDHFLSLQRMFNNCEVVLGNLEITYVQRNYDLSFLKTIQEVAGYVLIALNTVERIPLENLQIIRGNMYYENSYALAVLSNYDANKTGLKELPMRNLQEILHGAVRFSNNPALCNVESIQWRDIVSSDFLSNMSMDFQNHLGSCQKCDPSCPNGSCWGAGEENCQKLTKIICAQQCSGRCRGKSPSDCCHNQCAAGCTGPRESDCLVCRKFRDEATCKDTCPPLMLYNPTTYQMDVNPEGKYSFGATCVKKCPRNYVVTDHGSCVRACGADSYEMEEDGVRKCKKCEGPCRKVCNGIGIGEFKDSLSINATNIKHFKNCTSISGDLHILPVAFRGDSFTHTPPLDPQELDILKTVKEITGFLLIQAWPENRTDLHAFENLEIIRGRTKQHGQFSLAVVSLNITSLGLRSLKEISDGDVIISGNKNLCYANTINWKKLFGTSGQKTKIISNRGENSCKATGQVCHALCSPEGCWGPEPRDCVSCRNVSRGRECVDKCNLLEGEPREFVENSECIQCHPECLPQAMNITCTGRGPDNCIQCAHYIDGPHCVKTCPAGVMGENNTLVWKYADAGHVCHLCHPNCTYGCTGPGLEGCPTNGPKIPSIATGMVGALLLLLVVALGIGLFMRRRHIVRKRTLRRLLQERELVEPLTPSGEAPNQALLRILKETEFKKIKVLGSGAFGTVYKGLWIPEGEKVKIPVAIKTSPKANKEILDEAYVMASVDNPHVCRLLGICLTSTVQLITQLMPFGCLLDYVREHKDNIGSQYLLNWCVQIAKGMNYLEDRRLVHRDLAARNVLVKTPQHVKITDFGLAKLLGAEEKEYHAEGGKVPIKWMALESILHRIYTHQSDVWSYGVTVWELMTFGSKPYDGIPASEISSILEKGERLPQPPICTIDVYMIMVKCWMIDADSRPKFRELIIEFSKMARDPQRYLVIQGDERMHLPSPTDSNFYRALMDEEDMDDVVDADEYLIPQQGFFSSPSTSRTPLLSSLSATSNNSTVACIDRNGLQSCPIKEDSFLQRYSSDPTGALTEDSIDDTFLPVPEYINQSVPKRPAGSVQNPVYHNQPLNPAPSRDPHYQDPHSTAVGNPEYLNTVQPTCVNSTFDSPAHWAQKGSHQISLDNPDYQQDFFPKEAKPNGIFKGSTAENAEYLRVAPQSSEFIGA
T3 sequence (P00533 669-1210 L858R limits assumed): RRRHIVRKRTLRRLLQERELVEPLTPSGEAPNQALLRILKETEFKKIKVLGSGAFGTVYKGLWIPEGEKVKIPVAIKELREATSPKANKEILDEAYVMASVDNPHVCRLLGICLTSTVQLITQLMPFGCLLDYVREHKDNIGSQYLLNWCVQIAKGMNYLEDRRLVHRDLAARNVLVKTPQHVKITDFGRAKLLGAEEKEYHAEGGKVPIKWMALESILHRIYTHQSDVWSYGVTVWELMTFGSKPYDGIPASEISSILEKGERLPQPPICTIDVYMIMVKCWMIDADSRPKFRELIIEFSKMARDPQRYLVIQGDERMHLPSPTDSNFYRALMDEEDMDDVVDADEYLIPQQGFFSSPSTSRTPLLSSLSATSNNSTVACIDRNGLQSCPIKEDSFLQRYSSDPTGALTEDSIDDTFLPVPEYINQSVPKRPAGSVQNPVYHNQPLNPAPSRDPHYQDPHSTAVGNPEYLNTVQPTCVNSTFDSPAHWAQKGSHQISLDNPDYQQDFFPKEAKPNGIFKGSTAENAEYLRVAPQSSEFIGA
T2 sequence (P00533 with tags, fused parts or gaps DEL746-750 limits assumed): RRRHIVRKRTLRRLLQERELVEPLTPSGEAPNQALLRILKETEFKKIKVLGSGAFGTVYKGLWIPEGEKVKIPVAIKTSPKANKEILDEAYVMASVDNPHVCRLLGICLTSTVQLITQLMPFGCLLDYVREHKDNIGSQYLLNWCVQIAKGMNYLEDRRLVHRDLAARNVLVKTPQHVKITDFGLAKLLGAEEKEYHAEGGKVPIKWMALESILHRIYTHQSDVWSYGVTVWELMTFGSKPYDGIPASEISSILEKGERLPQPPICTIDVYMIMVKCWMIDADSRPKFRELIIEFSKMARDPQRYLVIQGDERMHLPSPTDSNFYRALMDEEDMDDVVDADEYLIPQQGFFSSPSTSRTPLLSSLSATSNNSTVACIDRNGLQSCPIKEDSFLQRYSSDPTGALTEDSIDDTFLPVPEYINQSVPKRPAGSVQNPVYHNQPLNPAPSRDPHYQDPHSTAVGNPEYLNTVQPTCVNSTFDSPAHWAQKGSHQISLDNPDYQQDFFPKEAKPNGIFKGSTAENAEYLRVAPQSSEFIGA
T1 sequence (P00533 669-1210 T790M limits assumed): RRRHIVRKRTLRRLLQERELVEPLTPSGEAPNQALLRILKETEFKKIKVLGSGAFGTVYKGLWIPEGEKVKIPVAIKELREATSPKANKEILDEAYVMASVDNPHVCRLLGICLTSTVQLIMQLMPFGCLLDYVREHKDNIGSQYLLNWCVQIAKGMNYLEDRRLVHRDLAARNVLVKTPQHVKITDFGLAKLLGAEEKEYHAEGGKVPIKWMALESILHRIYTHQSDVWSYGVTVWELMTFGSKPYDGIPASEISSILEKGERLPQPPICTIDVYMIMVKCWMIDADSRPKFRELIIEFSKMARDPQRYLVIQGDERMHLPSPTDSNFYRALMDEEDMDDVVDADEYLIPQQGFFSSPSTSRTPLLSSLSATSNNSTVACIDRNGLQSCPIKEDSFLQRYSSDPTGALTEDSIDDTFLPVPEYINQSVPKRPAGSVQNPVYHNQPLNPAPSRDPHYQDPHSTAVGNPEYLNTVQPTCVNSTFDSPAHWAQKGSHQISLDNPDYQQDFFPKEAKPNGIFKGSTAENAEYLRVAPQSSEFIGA

C=CC(=O)Nc1cc(Nc2nccc(-n3cc(CN(C)C)c(-c4ccccc4)n3)n2)c(OC)cc1N1CCOCC1 [Compound 73, N-(5-(4-(4-((dimethylamino)methyl)-3-phenyl-1H-pyrazol-1-yl)pyrimidin-2-ylamino)-4-methoxy-2-morpholinophenyl)acrylamide]
pIC50 (EGFR mutant T790M): > 7.70
pIC50 [1]: > 7.70
pIC50 (EGFR mutant L858R): > 7.70
pIC50 (EGFR mutant L858R/T790M): > 7.70
pIC50 (EGFR mutant Del19/T790M): > 7.70
pIC50 (JAK3): > 7.70
inhibition of the kinase activity of SYK (in words) (SYK; [4]): poorly inhibit
pIC50 (SYK): 6.00 to 6.70
inhibition of the kinase activity of KDR (in words) (KDR; [4]): poorly inhibit
pIC50 (KDR): < 6.00
pIC50 (H2073 (EGFR wildtype)): < 6.00
inhibition in H2073 cell (in words) (H2073 (EGFR wildtype); cell viability): not in H2073
inhibition in PC9 cell (in words) ([2]; cell viability): potent inhibition
Selectivity over wildtype, Wildtype vs mutant H2073/PC9 (fold) [2]: >200 fold
Selectivity over wildtype, Wildtype vs mutant H2073/PC9 (fold) ([2]; listed as compound 73): > 200 fold
pIC50 [2]: > 7.70
pIC50 [3]: > 7.70
inhibition in H1975 cell (in words) ([3]; cell viability): potent inhibition
Selectivity over wildtype, Wildtype vs mutant H2073/H1975 (fold) [3]: >200 fold
Selectivity over wildtype, Wildtype vs mutant H2073/H1975 (fold) ([3]; listed as compound 73): > 200 fold
inhibition against p-EGFR wildtype (in words) (p-EGFR wildtype; Western, FIG. 1): not p-EGFR wildtype
pIC50 (p-EGFR wildtype): 6.00 to 6.70
Selectivity over wildtype: p-wildtype over p-EGFR del19 (p-EGFR del E746-A750): 20-100 fold
inhibition against p-EGFR del E746-A750 (in words) (p-EGFR del E746-A750; Western, FIG. 1): potent inhibition
pIC50 (p-EGFR del E746-A750): > 7.70
Selectivity over wildtype: p-wildtype over p-EGFR L858R, T790M (p-EGFR L858R/T790M): 20-100 fold
inhibition against p-EGFR L858R/T790M (in words) (p-EGFR L858R/T790M; Western, FIG. 1): potent inhibition
pIC50 (p-EGFR L858R/T790M): > 7.70

C=CC(=O)Nc1cc(Nc2nccc(-n3cc(CN4CCC4)c(-c4ccccc4)n3)n2)c(OC)cc1N1CCOCC1 [Compound 78, N-(5-(4-(4-(azetidin-1-ylmethyl)-3-phenyl-1H-pyrazol-1-yl)pyrimidin-2-ylamino)-4-methoxy-2-morpholinophenyl)acrylamide]
pIC50 (EGFR mutant T790M): > 7.70
pIC50 [1]: > 7.70
pIC50 (EGFR mutant L858R): > 7.70
pIC50 (EGFR mutant L858R/T790M): > 7.70
pIC50 (EGFR mutant Del19/T790M): > 7.70
pIC50 (JAK3): 6.70 to 7.70
pIC50 (SYK): < 6.00
pIC50 (KDR): < 6.00
pIC50 (H2073 (EGFR wildtype)): < 6.00
Selectivity over wildtype, Wildtype vs mutant H2073/PC9 (fold) [2]: >200 fold
pIC50 [2]: > 7.70
pIC50 [3]: > 7.70
Selectivity over wildtype, Wildtype vs mutant H2073/H1975 (fold) [3]: >200 fold
pIC50 (p-EGFR wildtype): < 6.00
Selectivity over wildtype: p-wildtype over p-EGFR del19 (p-EGFR del E746-A750): >200 fold
pIC50 (p-EGFR del E746-A750): > 7.70
Selectivity over wildtype: p-wildtype over p-EGFR L858R, T790M (p-EGFR L858R/T790M): 101-200 fold
pIC50 (p-EGFR L858R/T790M): > 7.70

C=CC(=O)Nc1cc(Nc2ncc(C)c(-n3cc(CN4CCC4)c(C4CC4)n3)n2)c(OC)cc1N1CCOCC1 [Compound 123, N-(5-(4-(4-(azetidin-1-ylmethyl)-3-cyclopropyl-1H-pyrazol-1-yl)-5-methylpyrimidin-2-ylamino)-4-methoxy-2-morpholinophenyl)acrylamide]
pIC50 (EGFR mutant T790M): > 7.70
pIC50 [1]: > 7.70
pIC50 (EGFR mutant L858R): > 7.70
pIC50 (EGFR mutant L858R/T790M): > 7.70
pIC50 (EGFR mutant Del19/T790M): > 7.70
pIC50 (JAK3): > 7.70
pIC50 (SYK): 6.00 to 6.70
pIC50 (KDR): < 6.00
pIC50 (H2073 (EGFR wildtype)): < 6.00
Selectivity over wildtype, Wildtype vs mutant H2073/PC9 (fold) [2]: >200 fold
pIC50 [2]: > 7.70
pIC50 [3]: > 7.70
Selectivity over wildtype, Wildtype vs mutant H2073/H1975 (fold) [3]: >200 fold

C=CC(=O)Nc1cc(Nc2ncc(C)c(-n3cc(CN4CCC4)cn3)n2)c(OC)cc1N(C)CCN(C)C [Compound 42, N-(5-(4-(4-(azetidin-1-ylmethyl)-1H-pyrazol-1-yl)-5-methylpyrimidin-2-ylamino)-2-((2-(dimethylamino)ethyl)(methyl)amino)-4-methoxyphenyl)acrylamide]
pIC50 (EGFR mutant T790M): > 7.70
pIC50 [1]: > 7.70
pIC50 (EGFR mutant L858R): 6.70 to 7.70
pIC50 (EGFR mutant L858R/T790M): > 7.70
pIC50 (EGFR mutant Del19/T790M): > 7.70
pIC50 (JAK3): > 7.70
pIC50 (SYK): < 6.00
pIC50 (KDR): < 6.00
pIC50 (H2073 (EGFR wildtype)): < 6.00
Selectivity over wildtype, Wildtype vs mutant H2073/PC9 (fold) [2]: 20-100 fold
pIC50 [2]: 6.00 to 6.70
pIC50 [3]: 6.70 to 7.70
Selectivity over wildtype, Wildtype vs mutant H2073/H1975 (fold) [3]: >200 fold
